Experimental data reported in US9763996B2, “Polymyxin derivative and uses thereof” (Northern Antibiotics Ltd., priority 2015, dated 2017).
Values after ≈ are worked out from the molar mass of the structure shown. Values joined by “and” are separate entries in the source; they are usually repeats but may differ in a detail not shown here. Identical values can stand only once. Like-named read-outs stand apart in the source and are kept apart here. Where a SMILES comes first, the peptide text is derived from it. Bridges are numbered along the chain shown (N, C = ends). [ ]: non-standard residue; d: D form. The star is where a group is joined. Octanoyl = CCCCCCCC(=O)*; Dab = NCC[C@H](N)C(=O)O; Abu = CC[C@H](N)C(=O)O

How the values were obtained:
P. aeruginosa JMI 7445 = conditions: P. aeruginosa JMI 7445
Escherichia coli C175-94 = test: Murine urinary tract infection efficacy; assay type: in vivo; conditions: for dose-response in the CFUs in the bladder and in the kidneys: 0.25-2 mg/kg/dose s.c. twice a day
Procedure: The study used 64 outbred, OF-1 female mice (Charles River, France) weighing 28-32 grams and Escherichia coli C175-94 (serotype O8:K48:H4), a clinical isolate elaborating type 1 fimbriae. The peptides were NAB815 (Lot 1054308) and polymyxin B (Sigma-Aldrich, batch BCBF8382V). The study was performed by Statens Serum Institut, Copenhagen, Denmark.
Three days before the start of the study and during the study, the mice had free access to 5% glucose in drinking water.
On day 0, the urine was removed from the bladder by gently pressing the abdomen. Thereafter, the mouse was anaesthetized with approximately 0.15 ml of Zoletil mix s.c. A syringe with polyethylene catheter (Becton Dickison) containing the bacterial suspension was inserted via the urethra into the bladder and 50 μl of the bacterial inoculum was slowly injected into the bladder. Thereafter, the mouse was left in the cage. Mice were kept in a warming cabinet and were under surveillance until fully awake.
After measuring the colony forming units (CFUs), the inoculum was determined to contain 9.38 log 10 CFU/ml, corresponding to 8.08 log 10 CFU/mouse.
On day 1 and day 2 postinfection, the mice were treated subcutaneously with solutions (0.2 ml) containing NAB815, polymyxin B or vehicle (0.9% NaCl) twice a day. The treatment groups (six mice in each) were the following: vehicle control; NAB815, 0.25 mg/kg/dose; NAB815, 0.5 mg/kg/dose; NAB815, 1 mg/kg/dose; NAB815, 2 mg/kg/dose; polymyxin B, 0.25 mg/kg/dose; polymyxin B, 0.5 mg/kg/dose; polymyxin B, 1 mg/kg/dose; and polymyxin B, 2 mg/kg/dose. In addition, one group served as a pretreatment control to help to assess as how the infection has proceeded before the start of the treatment on day 1 postinfection.
On days 1, 2 and 3 postinfection urine was sampled for colony counts. On day 1 postinfection (pretreatment control group) and on day 3 postinfection (all the other groups) after the urine sample was taken, mice were sacrificed by cervical dislocation and bladder and kidneys were removed aseptically. The bladder and kidneys were stored at −80° C. and later homogenized in 0.5 and 1 ml saline, respectively.
CFUs in urine were determined immediately within 2-3 hours after sampling. Frozen organs were thawed and homogenized with steel beads on a tissue lyser. All samples, urine, kidney and bladder, were 10 fold diluted in saline and 20-μl spots were applied on blood agar plates in duplicates. In addition, undiluted samples of urine (2-100 μl depending on the amount of urine) were spread on a separate agar plate to determine the lowest possible detection level of the colony counts. All agar plates were incubated 18-22 h at 35° C. in ambient air.

E. coli ATCC 25922 = conditions: E. coli ATCC 25922
[1] = Toxicokinetics (plasma and urine) in cynomolgus monkeys; conditions: for AUC: plasma
Procedure: For seven days, the animals were dosed by intravenous (IV) infusion three times daily (TID) at a dose volume of 10 mL/kg for 1 hour (±10 minutes), 8±0.5 hours apart. The day of initial dose administration was designated study Day 1, with subsequent days consecutively numbered. Days prior to the initial dose administration were consecutively numbered with the final day of acclimation referenced as Day −1.
The following parameters were evaluated at designed intervals: clinical observations, body weights, clinical pathology (hematology, coagulation, serum chemistry, urinalysis including urine sediments and urine chemistry), toxicokinetics (plasma and urine) and anatomic pathology (kidney). In cases of animals sacrificed on an unscheduled basis, samples were taken on the day of the sacrifice.
Plasma and urine concentrations for toxicokinetic (TK) studies were determined by using liquid chromatograph interfaced with a mass spectrometer after precipitation of proteins. A sample (100 μL) was mixed with internal standard solution in water:formic acid (99:1 v/v; […]). Then, 600 μL of 100:1 acetonitrile:formic acid was added. The plates were centrifuged at 3200 rpm for 5 minutes. Using a Tomtec Quadra96, a 450 μL aliquot was transferred to a new 96-well plate and dried under nitrogen at 40° C. Then, 200 μL of water:methanol:formic acid (85:15:1 1 v/v) was added and the plate sealed for LC-MS/MS injection. LC-MS system consisted of Waters Acquity liquid chromatograph interfaced with a Thermo Scientific TSQ Quantitative triple quadrupole MS with ionization in the positive ion mode. Each sample (20 μL) was injected onto a Waters Acquity BEH Shield RP18 column (2.1×50 mm; 1.7 μm) equilibrated at 50° C. Mobile Phase A was 85:15:1 v/v water:methanol:formic acid. Mobile Phase B was 50:50:1 v/v acetonitrile:methanol:formic acid.
Peak area ratios from the calibration standard responses were regressed using a (1/concentration^2) linear fit for polymyxin B using colistin as the internal standard. For NAB739 and NAB815, peak areas from the calibration standard responses were regressed using a (1/concentration^2) quadratic fit (without the use of an internal standard).
The regression models were chosen based upon the behavior of the analytes across the concentration range used during development.
Toxicokinetic analysis was performed by using WinNonlin Phoenix version 6.3 software (Pharsight, Cary, N.C.). For plasma TK, noncompartmental IV infusion model was used.
In the cynomolgus monkey studies described in Example 3, where the peptides were administered as a 1-hour intravenous infusion three times daily, plasma and urine levels of the peptides were determined.

P. aeruginosa = test: Synergy studies with rifampin; assay type: cell-based, Pseudomonas aeruginosa; conditions: against P. aeruginosa
Procedure: Synergy studies were performed by using polymyxin derivatives in combination with rifampin, a model compound for such antibacterial agents that the intact outer membrane of Gram-negative bacteria acts as a permeability barrier.

E. coli JMI 109 = conditions: alone; E. coli JMI 109 (polymyxin-nonsusceptible)
P. aeruginosa ATCC 27853 = test: MIC assay (CLSI broth microdilution; checkerboard with rifampin); conditions: P. aeruginosa ATCC 27853
[2] = of all 24 mice treated at 0.25-2 mg/kg/dose
[3] = in combination with rifampin 0.25 μg/mL

CCCCCCCC(=O)N[C@@H](CCN)C(=O)N[C@H](C(=O)N[C@@H](C(=O)N[C@H]1CCNC(=O)[C@H]([C@@H](C)O)NC(=O)[C@H](CCN)NC(=O)[C@H](CC)NC(=O)[C@H](CC(C)C)NC(=O)[C@@H](Cc2ccccc2)NC(=O)[C@H](CCN)NC1=O)[C@H](C)O)[C@@H](C)O [NAB815, octanoyl-αDab-Thr-DThr-[cyclo-α,γDab-αDab-DPhe-Leu-Abu-αDab-Thr]] (Octanoyl-[Dab]T[dT][Dab][Dab][dF]L[Abu][Dab]T; lactam 4-C)
MIC (P. aeruginosa JMI 7445; alone): 8 µg/mL (≈ 6.81 µM) | CFU levels in urine, day 3 vs pretreatment control day 1 (Escherichia coli C175-94; 0.25 mg/kg/dose s.c. twice a day, OF-1 female mice): no significant differences | CFU levels in urine, day 3 vs pretreatment control day 1 (Escherichia coli C175-94; 0.5 mg/kg/dose s.c. twice a day, OF-1 female mice): no significant differences | CFU levels in urine, day 3 vs pretreatment control day 1 (Escherichia coli C175-94; 1 mg/kg/dose s.c. twice a day, OF-1 female mice, ** p<0.01): significant reduction of CFU levels in urine | CFU levels in urine, day 3 vs pretreatment control day 1 (Escherichia coli C175-94; 2 mg/kg/dose s.c. twice a day, OF-1 female mice, * p<0.05): significant reduction of CFU levels in urine | dose-response in the CFUs in the bladder and in the kidneys (Escherichia coli C175-94): showed a tendency of a dose-response | number of mice with bacterial levels below the detection limit in the kidneys (Escherichia coli C175-94; [2]): 20 mice | number of mice with bacterial levels below the detection limit in the urine (Escherichia coli C175-94; [2]): 8 mice | MIC (E. coli ATCC 25922; alone): 2 µg/mL (≈ 1.7 µM) | MIC (E. coli ATCC 25922; [3]): 1 µg/mL | MIC of rifampin in the presence of the peptide (E. coli ATCC 25922; peptide at 1 μg/mL): 0.25 µg/mL | factor of decrease of the MIC of rifampin (E. coli ATCC 25922; peptide at 1 μg/mL): 32 | AUC ([1]; cynomolgus monkey, in vivo, 36 mg/kg/day, AUCs, dosed at 36 mg/kg/d, day 1): 153 µg·h/mL | AUC ([1]; cynomolgus monkey, in vivo, iv, 8 mg/kg, AUCs 0-8 h, after infusion of 8 mg/kg, day 1): 102 µg·h/mL | AUC ([1]; cynomolgus monkey, in vivo, iv, 8 mg/kg, AUCs 0-8 h, after infusion of 8 mg/kg, day 7): 110 µg·h/mL | AUC ([1]; cynomolgus monkey, in vivo, iv, 36 mg/kg/day, AUCs, dosed at 36 mg/kg/d, day 7): 205 µg·h/mL | dose excreted ([1]; female, cynomolgus monkey, in vivo, iv, 36 mg/kg/d, urinary recoveries (0-8 h urine collection), 36 mg/kg/d, day 7, each animal): 33.9% | synergistic activity with rifampin (P. aeruginosa): lacked any notable synergistic activity with rifampin

Polymyxin B
MIC (P. aeruginosa JMI 7445; alone): 2 µg/mL | MIC (P. aeruginosa JMI 7445; [3]): 1 µg/mL | dose-response in the CFUs in the bladder and in the kidneys (Escherichia coli C175-94): did not show any dose-response tendency | CFU levels in urine, day 3 vs pretreatment control day 1 (Escherichia coli C175-94; any dose group (0.25, 0.5, 1, 2 mg/kg/dose) s.c. twice a day): no significant differences | number of mice with bacterial levels below the detection limit in the urine (Escherichia coli C175-94; [2]): 1 mice | MIC (E. coli ATCC 25922; alone): 2 µg/mL | MIC (E. coli ATCC 25922; [3]): 0.5 to 1 µg/mL | MIC (E. coli JMI 109): 4 to 8 µg/mL | MIC (P. aeruginosa ATCC 27853; alone): 2 µg/mL | MIC (P. aeruginosa ATCC 27853; [3]): 1 µg/mL | 0-8 h recovery in urine (of the dose) ([1]; after infusion of 8 mg/kg, given for each animal, 8 mg/kg): 1% and 2% (2×) | MIC (A. baumannii JMI 48125; alone): 2 µg/mL | MIC (A. baumannii JMI 48125; [3]): 1 µg/mL
